Results as given in US20230365563A1, “QUINAZOLINE COMPOUND AND APPLICATION THEREOF” (SHANGHAI PHARMACEUTICALS HOLDING CO., LTD., priority 2020, published 2023).
Counter-ions that a name gives are not always drawn.

Target: T1, KRAS-G12D and SOS1 (Homo sapiens, UniProt P01116, G12D)
T1 construct: purchased
Experiment: Inhibition of KRAS-G12D/SOS1 binding (Cisbio binding kit, 665/615 ratio), Effect Embodiment A
Conditions: read-out: GTP-KRAS-G12D:SOS1 IC50
Procedure, shortened: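 Compounds are tested over eleven threefold dilution steps in duplicate, with final DMSO at 1%.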

T1 sequence (P01116 1-188 isoform P01116-2 G12D): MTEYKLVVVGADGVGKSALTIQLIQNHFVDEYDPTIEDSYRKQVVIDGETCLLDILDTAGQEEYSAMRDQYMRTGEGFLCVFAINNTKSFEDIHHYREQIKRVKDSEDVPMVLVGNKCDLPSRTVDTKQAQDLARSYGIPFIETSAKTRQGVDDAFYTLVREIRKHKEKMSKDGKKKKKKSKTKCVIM

SMILES	IC50
N#Cc1cccc2cc(O)cc(-c3c(F)cc4c(N5CC6CCC(C5)N6)nc(OCCCN5C6CCC5COC6)nc4c3F)c12 (single isomer, unassigned) [Compound 278b, 8-((7R or 7S)-2-(3-(3-oxa-8-azabicyclo[3.2.1]octan-8-yl)propoxy)-4-((1R,5S)-3,8-diazabicyclo[3.2.1]octan-3-yl)-6,8-difluoroquinazolin-7-yl)-6-hydroxy-1-naphthonitrile diformate]	2.48 µM
CN1CCCC[C@H]1COc1nc(N2CC3CCC(C2)N3)c2cc(Cl)c(-c3cc(O)cc4ccccc34)c(F)c2n1 (single isomer, unassigned) [Compound 56b, 4-((R or S)-4-((1R,5S)-3,8-diazabicyclo[3.2.1]octan-3-yl)-6-chloro-8-fluoro-2-((S)-1-methylpiperidin-2-yl)methoxy)quinazolin-7-yl)naphthalen-2-ol dihydrochloride]	15.7 µM
CN(C)CCCOc1nc2c(c(N3CCNCC3)n1)CCN(c1cc(O)cc3ccccc13)C2 [Compound 73, 4-(2-(3-(Dimethylamino)propoxy)-4-(piperazin-1-yl)-5,8-dihydropyrido[3,4-d]pyrimidin-7(6H)-yl)naphthalen-2-ol]	15.7 µM
CN(C)C1CN(c2nc(N[C@@H]3C[C@H]4CCC[C@@H](C3)N4)c3cc(Cl)c(-c4cc(O)cc5ccccc45)c(F)c3n2)C1 (single isomer, unassigned) [Compound 32, 4-((S or R)-4-(((1R,3S,5S)-9-azabicyclo[3.3.1]nonan-3-yl)amino)-6-chloro-2-(3-(dimethylamino)azetidin-1-yl)-8-fluoroquinazolin-7-yl)naphthalen-2-ol]	187 µM
Oc1cc(Cl)c(C2CC2)c(-c2c(Cl)cc3c(N4CC5CCC(C4)N5)nc(OCCCN4C5CCC4COC5)nc3c2F)c1 (single isomer, unassigned) [Compound 197b, 3-((7S or 7R)-2-(3-(3-oxa-8-azabicyclo[3.2.1]octan-8-yl)propoxy)-4-((1R,5S)-3,8-diazabicyclo[3.2.1]octan-3-yl)-6-chloro-8-fluoroquinazolin-7-yl)-5-chloro-4-cyclopropylphenol formate]	2.71 µM
C#Cc1cccc2cc(O)cc(-c3c(F)cc4c(N5CC6CCC(C5)N6)nc(OCCCN5C6CCC5COC6)nc4c3F)c12 (single isomer, unassigned) [Compound 273b, 4-((7R or 7S)-2-(3-(3-oxa-8-azabicyclo[3.2.1]octan-8-yl)propoxy)-4-((1R,5S)-3,8-diazabicyclo[3.2.1]octan-3-yl)-6,8-difluoroquinazolin-7-yl)-5-ethynylnaphthalen-2-ol diformate]	1.85 µM
CN(C)C1CN(c2nc(C3CNC3)c3cc(Cl)c(-c4cc(O)cc5ccccc45)c(F)c3n2)C1 (single isomer, unassigned) [Compound 21a, (S or R)-4-(4-(azetidin-3-yl)-6-chloro-2-(3-(dimethylamino)azetidin-1-yl)-8-fluoroquinazolin-7-yl)naphthalen-2-ol bistrifluoroacetate]	1.28 µM
CN(C)C1CN(c2nc(N3CC4(CCNCC4)C3)c3cc(Cl)c(-c4cc(O)cc5ccccc45)c(F)c3n2)C1 (single isomer, unassigned) [Compound 10b, (S or R)-4-(6-chloro-2-(3-(dimethylamino)azetidin-1-yl)-8-fluoro-4-(2,7-diazaspiro[3.5 5]nonan-2-yl)quinazolin-7-yl)naphthalen-2-ol]	65.1 µM
CN(C)C1CN(c2nc(N3CC4(CCNC4)C3)c3cc(Cl)c(-c4cc(O)cc5ccccc45)c(F)c3n2)C1 (single isomer, unassigned) [Compound 8b, (S or R)-4-(6-chloro-2-(3-(dimethylamino)azetidin-1-yl)-8-fluoro-4-(2,6-diazaspiro[3.4]octan-2-yl)quinazolin-7-yl)naphthalen-2-ol]	71 µM
CN(C)CCCCc1nc(N2CC3CCC(C2)N3)c2cc(Cl)c(-c3cc(O)cc4ccccc34)c(F)c2n1 (single isomer, unassigned) [Compound 154a, 4-((S or R)-4-((1R,5S)-3,8-diazabicyclo[3.2.1]octan-3-yl)-6-chloro-2-(4-(dimethylamino)butyl)-8-fluoroquinazolin-7-yl)naphthalen-2-ol dihydrochloride]	0.204 µM
CN(C)C1CN(c2nc(N3C[C@H]4CC[C@@H](C3)N4)c3cc(Cl)c(-c4cc(O)cc5ccccc45)c(F)c3n2)C1 (single isomer, unassigned) [Compound 5b, (S or R)-4-(4-((1R,5S)-3,8 diazabicyclo [3.2.1]octan-3-yl)-6-chloro-2-(3-(dimethylamino)azetidin-1-yl)-8-fluoro-quinazolin-7-yl)naphthalen-2-ol]	63.3 µM
Oc1cc(-c2c(Cl)cc3c(N4CC5CCC(C4)N5)nc(OCCCN4CCCC4)nc3c2F)c2ccccc2c1 (single isomer, unassigned) [Compound 63b, 4-((R or S)-4-((1R,5S)-3,8-diazabicyclo[3.2.1]octan-3-yl)-6-chloro-8-fluoro-2-(3-(pyrrolidin-1-yl)propoxy)quinazolin-7-yl)naphthalen-2-ol]	12.9 µM

More lines, in order of falling IC50, values ahead:

IC50	SMILES
100 µM	CN(C)CCCn1c(=O)nc(N2CC3CCC(C2)N3)c2cc(Cl)c(-c3cc(O)cc4ccccc34)c(F)c21 (single isomer, unassigned) [Compound 74a, 4-((1R,5S)-3,8-diazabicyclo[3.2.1]octan-3-yl)-6-chloro-1-(3-(dimethylamino)propyl)-8-fluoro-7-((S or R)-3-hydroxynaphthalen-1-yl)quinazolin-2(1H)-one]
44.6 µM	CN(C)C1CN(c2nc(N3CC4CCC(C3)N4)c3cc(Cl)c(-c4cc(O)cc5cccc(Cl)c45)c(F)c3n2)C1 (single isomer, unassigned) [Compound 65a, 4-((S or R)-4-((1R,5S)-3,8-diazabicyclo[3.2.1]octan-3-yl)-6-chloro-2-(3-(dimethylamino)azetidin-1-yl)-8-fluoroquinazolin-7-yl)-5-chloronaphthalen-2-ol]
1.39 µM	C#Cc1c(F)ccc2cccc(-c3c(F)cc4c(N5CC6CCC(C5)N6)nc(OC[C@@]56CCCN5C[C@H](F)C6)nc4c3F)c12 (single isomer, unassigned) [Compound 279b, (R or S)-4-((1R,5S)-3,8-diazacyclo[3.2.1]octyl-3-yl)-7-(8-ethynyl-7-fluoronaphthalen-1-yl)-6,8-difluoro-2-((2R,7aS)-2-fluorotetrahydro-1H-pyrrolidin-7a(5H)-yl)methoxy)quinazoline formate]
0.762 µM	Cn1ccnc1COc1nc(N2C[C@H]3CC[C@@H](C2)N3)c2cnc(-c3cc(O)cc4ccccc34)c(F)c2n1 [Compound 132, 4-(4-((1R,5S)-3,8-diazabicyclo[3.2.1]octan-3-yl)-8-fluoro-2-((1-methyl-1H-imidazol-2-yl)methoxy)pyridinyl[4,3-d]pyrimidin-7-yl)naphthalen-2-ol trifluoroacetate]
0.556 µM	O=S1(=O)CC2CCC(C1)N2CCCOc1nc(N2CC3CCC(C2)N3)c2cc(Cl)c(-c3cc(O)cc4ccccc34)c(F)c2n1 (single isomer, unassigned) [Compound 212, 8-(3-((S or R)-4-((1R,5S)-3,8-diazabicyclo[3.2.1]octan-3-yl)-6-chloro-8-fluoro-7-(3-hydroxynaphthalen-1-yl)quinazolin-2-yl)oxy)propyl)-3-thio-8-azabicyclo[3.2.1]octane-3,3-dioxide formate]
